A short description of data set [1]: Blood-brain-barrier permeability in mice after IV administration. The following applies: male, CD1 (ICR), mouse, intravenous, 3 mg/kg.
Description: The compound is administered to the animal in a suitable vehicle at T=0 hours. At 0.5 hours post administration plasma and separately brain are removed, prepared and analysed for total compound concentration.
Temperature: 45 °C Injection Volume: 1.5 µl for brain, 4 µl for plasma Ion Source: ESI+, SRM detection
The unbound partition coefficient (Kpuu) was determined as a ratio between the free compound concentrations in plasma and brain: Kpuu = (Cub,brain)/(Cub,plasma) [formula]
Where Cu,brain = unbound concentration in brain (C × Fub, brain); wherein • C = concentration at steady state; and • Cub,plasma = unbound concentration in plasma (C × Fub).
The nature of data set [2]: Kpuu determination in the dog (plasma and CSF time course after oral capsule). It counts as in vivo, male beagle dog. As for the experimental part: Example 3 was loaded as a solid, Batch No. C2210502, into enteric coated capsule (0#). Fasted male beagle dog was dosed with pentagastrin (0.25 mg/mL and 0.024 mL/kg) at 6 µg/kg by intramuscular (IM) injection at approximately 30 minutes prior to administration of test compound. Capsule containing 20 mg/kg of Example 3 were administered orally and plasma and CSF samples were taken pre-dose, 0.5, 1, 2, 4, 8 12 and 24 hours post dosing and analysed for concentration of Example 3 in analogous fashion to the study above.
Kpuu = AUC0−infcsf/(AUC0−infplasma×(%Fuplasma/100)) [formula] Kpuu = 6414/(23816×(55,5/100)) = 6414/13218 = 0.49 [formula]

The nature of data set [3]: Plasma protein binding by rapid equilibrium dialysis, dog plasma. It counts as in vitro ADME. Here is the method:
(§1) Plasma protein binding and brain homogenate binding for study compounds in mouse, dog, and rat by rapid equilibrium dialysis
(§2) In practice, unbound fractions in plasma and brain tissue were assessed using rapid equilibrium dialysis in vitro. Separately a pharmacokinetic study was run in vivo whereby a dose of the compound of interest was given at T=0 hours and at subsequent timepoints (eg 0.5, 1 and 4 hours) plasma and separately brain samples were analysed for total concentration of the compound of interest. These total concentrations could then be adjusted with the unbound fraction to give the unbound concentrations in the plasma and brain.
(§3) The test compounds were incubated in plasma and brain homogenate from the relevant species at 37 °C in RED device with inserts (8K MWCO, Thermo scientific) for 4 hours at 5 µM in triplicates. 350 µL of 150 mM phosphate buffered saline (PBS, pH 7.4) was used as the receiver side solutions. […] After 10-minute centrifugation at 13 200 rpm, the sample supernatants were analysed with an LC-MS/MS, to obtain the unbound fraction of the test compound (Fub). The unbound fraction was calculated from the peak area ratios obtained for each matrix: Fub = CPBS /Cplasma; [formula] where CPBS and Cplasma are the analyte concentrations in PBS (receiver) and plasma (donor), respectively. […]
(In general: In equilibrium dialysis only unbound substance equilibrates across the membrane.)

The nature of data set [4]: Brain homogenate binding by rapid equilibrium dialysis, rat brain. It counts as in vitro ADME. To be noted: pH 7.4, 37 °C, dilution factor 5, read-out: Unbound (Fu, %). Here is the method:
as §1, §2, §3

The mark [5] stands for this setting: male, beagle, CSF, 20 mg/kg oral capsule, read-out: CSF concentration.
Where [6] appears, read: male, beagle, plasma, 20 mg/kg oral capsule, read-out: Plasma concentration.

Read-outs that look alike come from different tables or passages of the source.

Broadly, the Kp is tissue or fluid exposure divided by exposure in the circulation. The AUC(0-inf) is total exposure, with the tail of the curve extrapolated. A low value points to less exposure. As for `CC(C)(C)CC[C@H](NCc1ccc2c(c1)COCC2)C(=O)O` [Example 3, (S)-2-((isochroman-7-ylmethyl)amino)-5,5-dimethylhexanoic acid], the results for the concentration at 0.5 h in data set [1] (brain) and in data set [1] (plasma) were 61.2 ng/g and 292 ng/mL, respectively. In data set [1] (brain/plasma), this compound returned a Kp at 0.5 h of 0.21. In addition, the CSF concentration entry in data set [2] (20 mg/kg oral capsule, 0,5 h) is “BQL”; in data set [2] (20 mg/kg oral capsule, 1 h), “BQL”; in data set [2] (20 mg/kg oral capsule, 2 h) it was 13,7 ng/mL; in data set [2] (20 mg/kg oral capsule, 24 h) it was 27,7 ng/mL. For the same compound, the Plasma concentration in data set [2] (20 mg/kg oral capsule, 0,5 h) is recorded as 1,04 ng/mL; in data set [2] (20 mg/kg oral capsule, 1 h) it was 3,20 ng/mL; in data set [2] (20 mg/kg oral capsule, 24 h), 87,1 ng/mL. Besides, the total exposure AUC(0-inf) in data set [2] (male, beagle, CSF, 20 mg/kg oral capsule) worked out at 6410 ng·h/mL; in data set [2] (male, beagle, Plasma, 20 mg/kg oral capsule), 23800 ng·h/mL. Moreover, the concentration at 4 h in data set [2] (setting [5]) was 745 ng/mL; in data set [2] (setting [6]), 5350 ng/mL. For the same compound, the concentration at 8 h in data set [2] (setting [5]) turned out to be 698 ng/mL; in data set [2] (setting [6]), 1400 ng/mL. The concentration at 12 h worked out at 196 ng/mL in data set [2] (setting [5]) and 390 ng/mL in data set [2] (setting [6]). The same compound gave a concentration at 2 h in data set [2] (male, beagle, plasma, 20 mg/kg oral capsule, 2 h) of 370 ng/mL. For the same compound, the “%Fuplasma” value in data set [3] (dog plasma, as used for the Kpuu calculation) was 55%. For the same compound, the fraction unbound at 4 h, 5 µM was 0.555 in data set [3] (pH 7.4, Dog plasma, 5 µM, 4 hours, 37 °C, read-out: Unbound (Fu, %)) and 0.371 in data set [4].

The values are drawn from patent EP4342530A1, “SORTILIN MODULATORS” (Insusense ApS, priority 2022, dated 2024).
